The target of test [1] is T1, MAPKAPK5 (Homo sapiens, UniProt Q8IW41).
T1 sequence (Q8IW41 1-471 isoform Q8IW41-2): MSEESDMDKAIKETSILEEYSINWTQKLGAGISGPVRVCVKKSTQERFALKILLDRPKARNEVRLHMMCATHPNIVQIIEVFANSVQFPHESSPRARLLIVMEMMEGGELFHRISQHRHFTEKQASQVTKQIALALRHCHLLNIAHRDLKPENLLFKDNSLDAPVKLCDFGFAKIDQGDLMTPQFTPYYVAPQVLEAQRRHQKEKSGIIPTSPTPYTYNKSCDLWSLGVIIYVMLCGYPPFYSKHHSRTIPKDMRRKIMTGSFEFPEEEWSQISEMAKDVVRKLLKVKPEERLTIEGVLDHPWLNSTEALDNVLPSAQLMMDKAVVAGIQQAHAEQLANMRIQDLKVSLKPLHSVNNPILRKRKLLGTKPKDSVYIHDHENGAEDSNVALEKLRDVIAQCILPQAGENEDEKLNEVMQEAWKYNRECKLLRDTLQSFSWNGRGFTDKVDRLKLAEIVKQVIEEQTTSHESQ
The test can be described thus: MAPKAP-K5 FlashPlate kinase assay. The test is classed as biochemical. The following applies: 0.6 μM ATP, 30 minutes, room temperature. The procedure: MAPKAP-K5 reactions are performed in FlashPlate format using 0.1 or 0.2 μCi 33P-ATP; 0.6 μM ATP; 1 mU MAPKAP-K5; 3 μM MAPKAP-K5 peptide substrate, incubated at room temperature for 30 minutes.
The MAPKAP-K5 kinase reaction is performed in a 384 well polypropylene plate (Matrix Technologies) and then transferred to a streptavidin-coated 384 well flashplate (Perkin-Elmer). To wells containing 2 μL test compound or standard inhibitor, 13 μL Enzyme mix or diluent are added using a Hydra (Robbins Scientific). Reactions are started by addition of 10 μL of [2.5×] substrate cocktail using a Multidrop (Thermo-Labsystems), to give final concentrations in the assay of: • 1 mU MAPKAP-K5 • 3 μM MAPKAP-K5 peptide substrate • 0.6 μM ATP • 0.004 μCi [33P]-γ-ATP/μL • 1× reaction buffer
Plates are incubated at room temperature for 30 minutes. Reactions are terminated by the addition of 25 μL EDTA (50 mM) to each well using a Micro-fill (Biotek). Reactions are transferred to a streptavidin-coated flashplate using a Zymark robotic system. Plates are incubated for 60 minutes at room temperature. All wells are washed 3 times with 100 μl phosphate buffered saline using a Tecan plate washer. Radioactivity is determined by scintillation counting of the flashplate (empty wells) on a Packard TopCount.
Enzyme Mix: • Enzyme • 50 mM Tris Hcl (pH 7.5) • 0.1 mM EGTA • 2 mM DTT • 1 mg/mL BSA
Reaction Buffer: • 50 mM Tris Hcl (pH 7.5) • 0.1 mM EGTA • 10 mM Magnesium acetate • 2 mM DTT

Test [2] deals with MMP1 expression by activated synovial fibroblasts (RASFs). The test can be described thus: 'MMP assay': complex trigger-induced MMP1 expression by synovial fibroblasts (MMP1 ELISA). The class given is cell-based. The conditions noted are these: Homo sapiens, Fibroblast; RASFs, complex trigger, 48 hrs; read-out: MMP1 IC50. The procedure:
A 384-well format ELISA for measurement of MMP1 is developed. Various primary antibodies are tested, as well as various ELISA protocols. The following protocol is developed and validated to measure MMP1 levels in SF supernatant in 384 well plates: white Lumitrac 600 384 well plates (Greiner) are coated with 2 μg/mL anti-MMP1 antibody MAB1346 (Chemicon). The antibody is diluted in buffer 40 (1.21 g Tris base (Sigma), 0.58 g NaCl (Calbiochem) and 5 ml 10% NaN3 (Sigma) in 1 L milliQ water and adjusted to pH 8.5). After overnight incubation at 4° C., plates are washed with PBS (80 g NaCl, 2 g KCl (Sigma), 11.5 g Na2HPO4.7H2O and 2 g KH2PO4 in 10 L milliQ; pH 7.4) and blocked with 100 μL/well Casein buffer (2% Casein (VWR International) in PBS). Next day, casein buffer is removed from ELISA plates and replaced by 50 μL/well EC buffer (4 g casein, 2.13 g Na2HPO4 (Sigma), 2 g bovine albumin (Sigma), 0.69 g NaH2PO4.H2O (Sigma), 0.5 g CHAPS (Roche), 23.3 g NaCl, 4 ml 0,5 M EDTA pH 8 (Invitrogen), 5 ml 10% NaN3 in 1 L milliQ and adjusted to pH 7.0). 0.25 mM DTT (Sigma) is added to the thawed samples plates. After removal of the EC buffer, 20 μL of sample is transferred to the ELISA plates. After overnight incubation at 4° C. plates are washed twice with PBS and once with PBST (PBS with 0.05% Tween-20 (Sigma)) and incubated with 35 μL/well biotinylated anti-MMP1 antibody solution (R&D). This secondary antibody is diluted in buffer C (0.82 g NaH2PO4.H2O, 4.82 g Na2HPO4, 46.6 g NaCl, 20 g bovine albumin and 4 mL 0,5M EDTA pH 8 in 2 L milliQ and adjusted to pH 7.0) at a concentration of 5 μg/mL. After 2 h of incubation at RT, plates are washed as described above and incubated with 50 μL/well streptavidin-HRP conjugate (Biosource). Streptavidin-HRP conjugate is diluted in buffer C at a concentration of 0.25 μg/mL. After 45 min, plates are washed as described above and incubated for 5 min with 50 μL/well BM Chem ELISA Substrate (Roche). Readout is performed on the Luminoscan Ascent Luminometer (Labsystems) with an integration time of 200 msec or with an Envision reader (Perkin Elmer).
The increase of MMP1 expression by SFs upon treatment with cytokines relevant in the field of RA (TNF-α, IL1β and OSM) or a combination thereof is shown in FIG. 2 as white bars. For this experiment, SFs are seeded in 96 well plates, 3,000 cells/well. 24 h later, the medium is changed to M199 medium supplemented with 1% FBS. One day after the medium change, cytokines or combinations thereof are added to the cultures, each cytokine being added to a final concentration of 25 ng/mL. 72 h after cytokine addition, the supernatant is collected and processed in the MMP1 ELISA as described in the protocol given above. In parallel with this experiment, SFs are triggered, using the same protocol, with the supernatant of THP1 cells (2-fold diluted in M199+1% FBS) treated with the same cytokines or combinations of cytokines for 48 h in M199 medium+1% FBS. The induction of the MMP1 expression by SFs triggered with the supernatants of TNF-α-treated THP1 cells is stronger (>4.5 fold induction) as compared to the SFs triggered with recombinant TNF-α alone (3-fold induction) and almost equals the 5-fold induction obtained by a mixture of 3 purified cytokines (TNF-α, IL1βb, OSM). […] As the role of TNF-α in the RA pathogenesis is validated (TNF-α-blockers such as Infliximab and Etanercept show some efficacy in the treatment of RA patients) and the THP-1 cells are representative for monocytes/macrophages present in the joint of RA patients, the TNF-α-based trigger mixture prepared by contacting THP-1 cells with TNF-α will contain factors present in the joints of RA patients and subsequently is relevant to RA. This TNF-α-based complex trigger, further referred to as the ‘complex trigger’, will further be used as basis for the ‘MMP assay’. […]
A general note: In an ELISA, binding on a coated surface is turned into a signal by an enzyme label.

Test [3] concerns MMP13 expression in SW1353 chondrosarcoma cell line. The test can be described thus: MMP13 assay: IL-1/OSM-driven MMP13 expression in SW1353 cells (MMP13 ELISA). The following applies: Homo sapiens, IL-1β and OSM, 48 hr. The class given is cell-based. As to the method: The protocol of the MMP13 ELISA is described in section 4.1, then testing of compounds on release of IL-1/OSM-driven MMP13 expression in SW1353 chondrosarcoma cell line is described in section 4.2.
A 384 well format ELISA for measurement of MMP13 was developed. Various primary antibodies were tested, as well as various ELISA protocols. The following protocol is developed and validated to measure MMP13 levels in supernatant of cell cultures in 384 well plates.
Black maxisorb 384 well plates (Nunc 460518) are coated with 35 μl of a buffered solution containing 1.5 μg/mL anti-MMP13 antibody MAB511 (R&D systems). The antibody is diluted in carbonate-bicarbonate coating buffer (1.59 g Na2CO3 (Sigma S-7795) and 2.93 g NaHCO3 (Sigma S-5761) in 1 L MilliQ water, adjusted to pH 9.6). After overnight incubation at 4° C., wells are washed twice with 100 μL PBST (80 g NaCl, 2 g KCl (Sigma), 11.5 g Na2HPO4.7H2O and 2 g KH2PO4 in 10 L milliQ water; pH 7.4+0.05% Tween-20 (Sigma)) and blocked with 100 μL/well blocking buffer (5% non fat dry milk in PBS). After overnight incubation at 4° C., wells are washed twice with 100 μL PBST. The PBST is removed and 35 μL of sample is transferred to the ELISA plates. After 4 hr incubation at RT, plates are washed twice with PBST and incubated for 1 hr at 37° C. with 35 μL/well 1.5 mM APMA solution (a 10 mM APMA stock solution is prepared one day before (35.18 mg APMA (Sigma A-9563) in 10 mL 0.1M NaOH (Merck 1.06469.1000) and stored at 4° C. Before use, the 10 mM APMA stock solution is diluted to 1.5 mM in 1×APMA buffer (10× APMA buffer: 500 mM Tris (Roche 708976), 50 mM CaCl2 (Sigma C-5080), […] ZnCl2 (Sigma Z-0173), 1.5 M NaCl (Calbiochem 567441), 0.5% Brij35 (Sigma 430 AG-6) and adjust to pH 7.0). After activation of MMP13 by APMA, plates are washed again two times with 100 μL PBST/well and 35 μL of substrate solution is added to each well. Substrate solution is prepared as follows: OmniMMP Fluorescent substrate (Biomol P-126) stock solution (2 mM in DMSO, stored at −20° C.) is diluted in 1× OmniMMP buffer (10× OmniMMP buffer: 500 mM Hepes (Sigma H4034), 100 mM CaCl2 (Sigma C5080), 0.5% Brij35 (Sigma 430 AG-6; adjusted to pH 7.0) to a final concentration of 0.01 mM. After an overnight incubation at 37° C., the active MMP13 in the sample has cleaved the substrate and released fluorescence. Readout is performed on the EnVision (Perkin Elmer) using 320 nm excitation/405 nm emission filters.
Human chondrosarcoma cell line SW1353 was acquired from ATCC and grown in DMEM supplemented with 10% heat-inactivated FBS and 1× penicillin/streptomycin (Invitrogen) in a humidified 5% CO2 incubator at 37° C. Aliquots of the cells were frozen and cryopreserved in liquid nitrogen. Starting from a cryopreserved aliquot, cells are further grown by sub-culturing at a 1/5-1/8 ratio twice a week by trypsinisation.
Starting from the compound master stocks (all at 10 mM concentration in 100% DMSO) a 3-fold serial dilution is made in 96-well plates in 100% DMSO. Then, plates are futher diluted 50-fold in M199 medium supplemented with 1% heat-inactivated FBS to obtain an intermediate work stock.
At day 1, SW1353 cells are seeded in 96-well plates (flat bottom, tissue culture treated, Greiner) at a density of 15000 cells/well in 120 μL growth medium. The next day, 15 μL compound out of the intermediate work stock is added. After an incubation period of 60 minutes, which allows the compounds to equilibrate and enter the cells, cells are stimulated with a mixture of IL-1β and OSM, added in a volume of 15 μL to obtain final concentrations of 1 ng/ml IL-1β and 25 ng/ml OSM. For that, stocks of IL-1 (10 μg/ml) and OSM (25 μg/ml) (both PeproTech) were diluted to 10 ng/ml and 250 ng/ml respectively, in M199 medium supplemented with 1% FBS. After incubation for 48 hr, the cell supernatant was harvested and an appropriate dilution was processed in the MMP13 ELISA as described above, delivering raw data (RFU: relative fluorescence units). […]

A value given as a limit tells only on which side of the number the result lay.

On to `CC(C)N1CC2CCC1CN2c1ccc(Nc2ncc(-c3coc(C(N)=O)c3)n3ccnc23)cc1` (stereo not drawn) [Compound 10, 4-{8-(4-(5-isopropyl-1-2,5-diazabicyclo[2.2.2]octan-2-yl)phenylamino)-imidazo[1,2-a]pyrazin-5-yl}-furan-2-carboxamide], for which the values for the IC50 in test [1] and in test [2] were 101 to 500 nM and greater than 1000 nM, respectively.
Turning to `CC(C)N1C[C@H]2C[C@@H]1CN2c1ccc(Nc2ncc(-c3coc(C(N)=O)c3)n3ncnc23)cc1` [Compound 27, 4-[8-({4-[(1R,4R)-5-isopropyl-2,5-diazabicyclo[2.2.1]hept-2-yl]phenyl}amino)[1,2,4]triazolo[1,5-a]pyrazin-5-yl]-2-furamide], in test [1], the IC50 fell in the range of 0.01 to 100 nM.
On to `CC(C)N1C[C@@H]2C[C@H]1CN2c1ccc(Nc2ncc(-c3coc(C(N)=O)c3)n3ncnc23)cn1` [Compound 7, 4-{8-(6-((1S,4S)-5-isopropyl-2,5-diazabicyclo[2.2.1]heptan-2-yl)pyridin-3-ylamino)-[1,2,4]triazolo[1,5-a]pyrazin-5-yl}-furan-2-carboxamide], for which the IC50 in test [3] lay in the range of 1 to 500 nM; in test [1], 0.01 to 100 nM.
For `CC(C)N1CC2CCC(C1)N2c1ccc(Nc2ncc(-c3coc(C(N)=O)c3)n3ncnc23)cc1` [Compound 13, 4-{8-(4-(3-isopropyl-3,8-diazabicyclo[3.2.1]octan-8-yl)phenylamino)[1,2,4]-triazolo[1,5-a]pyrazin-5-yl}-furan-2-carboxamide], in that order: greater than 1000 nM and 0.01 to 100 nM.
Regarding `CC(C)N1C2CCC1CN(c1ccc(Nc3ncc(-c4coc(C(N)=O)c4)n4ccnc34)cc1)C2` [Compound 14, 4-{8-(4-(8-isopropyl-3,8-diazabicyclo[3.2.1]octan-3-yl)phenylamino)-imidazo[1,2-a]pyrazin-5-yl}-furan-2-carboxamide], the IC50 was 101 to 500 nM in test [1] and greater than 1000 nM in test [2].

One may read the IC50 as the midpoint of a concentration-inhibition curve.

Values taken from patent US8012983B2, “Substituted triazolopyrazines useful for the treatment of degenerative and inflammatory diseases” (Galapagos NV, priority 2008, dated 2011).
